In experiment [1] the target is T1, Tyrosine-protein kinase JAK3 (Homo sapiens) (UniProt P52333).
T1 sequence (whole entry): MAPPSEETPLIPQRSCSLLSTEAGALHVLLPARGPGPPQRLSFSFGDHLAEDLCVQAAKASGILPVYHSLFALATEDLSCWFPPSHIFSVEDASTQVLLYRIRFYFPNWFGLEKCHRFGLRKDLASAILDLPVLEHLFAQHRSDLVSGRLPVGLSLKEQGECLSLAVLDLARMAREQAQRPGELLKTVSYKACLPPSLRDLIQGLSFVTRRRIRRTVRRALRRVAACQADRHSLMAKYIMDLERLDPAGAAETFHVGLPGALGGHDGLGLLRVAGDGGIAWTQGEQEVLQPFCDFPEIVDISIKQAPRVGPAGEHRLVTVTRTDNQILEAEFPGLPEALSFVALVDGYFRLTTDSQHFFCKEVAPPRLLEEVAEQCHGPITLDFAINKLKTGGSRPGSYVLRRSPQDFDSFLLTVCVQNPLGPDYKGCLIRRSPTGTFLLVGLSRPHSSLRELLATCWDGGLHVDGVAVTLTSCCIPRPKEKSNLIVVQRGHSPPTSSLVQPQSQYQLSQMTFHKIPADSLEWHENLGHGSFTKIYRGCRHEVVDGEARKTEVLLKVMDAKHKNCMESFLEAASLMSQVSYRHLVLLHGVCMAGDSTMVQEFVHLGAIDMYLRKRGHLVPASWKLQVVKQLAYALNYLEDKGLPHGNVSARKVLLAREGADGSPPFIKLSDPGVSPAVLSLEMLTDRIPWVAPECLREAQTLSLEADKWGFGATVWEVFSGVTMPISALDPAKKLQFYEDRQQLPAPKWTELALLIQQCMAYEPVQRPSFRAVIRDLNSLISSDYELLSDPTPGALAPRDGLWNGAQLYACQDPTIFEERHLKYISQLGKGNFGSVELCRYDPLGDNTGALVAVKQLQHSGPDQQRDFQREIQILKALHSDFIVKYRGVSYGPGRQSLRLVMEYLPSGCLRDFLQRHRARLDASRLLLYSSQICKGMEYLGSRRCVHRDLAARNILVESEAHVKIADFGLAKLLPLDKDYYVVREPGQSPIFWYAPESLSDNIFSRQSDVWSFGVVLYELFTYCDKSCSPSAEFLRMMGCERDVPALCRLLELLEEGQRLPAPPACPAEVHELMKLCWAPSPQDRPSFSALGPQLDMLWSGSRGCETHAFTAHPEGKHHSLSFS
The experiment in a line: Selectivity interaction (KinomeScan (DiscoverX)) EUB0001619a JAK3. The conditions noted are these: at 1 µM.

Experiment [2] has as its target LIM domain kinase 2 (Homo sapiens) (UniProt P53671). To be noted: at 10 µM.
Experiment [3] has as its target Activin receptor type-1-like (Homo sapiens) (UniProt P37023). The experiment in a line: Selectivity interaction (KinomeScan (DiscoverX)) EUB0000045b ACVRL1.
Experiment [4] in a line: Selectivity interaction (KinomeScan (DiscoverX)) EUB0000045b CDPK1.
Experiment [5] has as its target T2, Ribosomal protein S6 kinase alpha-3 (Homo sapiens, UniProt P51812). The experiment in a line: Selectivity interaction (KinomeScan (DiscoverX)) EUB0000045b RPS6KA3.
Experiment [6] deals with Cyclin-dependent kinase 11A (Homo sapiens, UniProt Q9UQ88). The experiment in a line: Selectivity interaction (Kinase panel (Invitrogen, enzymatic assay)) EUB0000162b CDK11A.
Cyclin-dependent kinase 11A, sequence (Q9UQ88 whole entry): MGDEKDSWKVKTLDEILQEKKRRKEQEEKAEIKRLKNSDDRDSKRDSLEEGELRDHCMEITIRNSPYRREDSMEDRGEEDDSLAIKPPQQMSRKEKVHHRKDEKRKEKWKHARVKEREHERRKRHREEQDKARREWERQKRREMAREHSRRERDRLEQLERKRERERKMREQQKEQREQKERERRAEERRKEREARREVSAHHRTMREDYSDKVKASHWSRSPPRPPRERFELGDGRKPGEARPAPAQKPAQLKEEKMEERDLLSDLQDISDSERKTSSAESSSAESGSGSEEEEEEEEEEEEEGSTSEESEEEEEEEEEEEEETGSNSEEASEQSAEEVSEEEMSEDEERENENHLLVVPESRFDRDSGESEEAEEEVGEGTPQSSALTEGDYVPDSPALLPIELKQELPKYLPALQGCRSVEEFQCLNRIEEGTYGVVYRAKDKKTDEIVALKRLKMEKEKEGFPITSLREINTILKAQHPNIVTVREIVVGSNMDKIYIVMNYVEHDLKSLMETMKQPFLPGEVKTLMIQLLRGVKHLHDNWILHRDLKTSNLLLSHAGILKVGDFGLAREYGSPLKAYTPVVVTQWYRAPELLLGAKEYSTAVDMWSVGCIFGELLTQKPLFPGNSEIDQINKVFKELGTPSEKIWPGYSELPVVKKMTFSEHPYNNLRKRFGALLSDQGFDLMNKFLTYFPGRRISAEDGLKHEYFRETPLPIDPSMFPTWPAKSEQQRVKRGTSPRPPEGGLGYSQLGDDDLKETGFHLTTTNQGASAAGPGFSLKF
Experiment [7] has as its system Tyrosine-protein kinase ABL1 (Homo sapiens), P00519 [F317I]. The experiment in a line: Selectivity interaction (Ambit KINOMEscan and KiNATiv profiling in Jurkat cells) EUB0000090b ABL1. It counts as cell-based. The conditions noted are these: at 1 µM.
The target of experiment [8] is Mitogen-activated protein kinase 14 (Homo sapiens, UniProt Q16539). The experiment in a line: Selectivity interaction (Ambit KINOMEscan and KiNATiv profiling in Jurkat cells) EUB0000090b MAPK14. It counts as cell-based. To be noted: at 1 µM.
Mitogen-activated protein kinase 14, sequence (Q16539 whole entry): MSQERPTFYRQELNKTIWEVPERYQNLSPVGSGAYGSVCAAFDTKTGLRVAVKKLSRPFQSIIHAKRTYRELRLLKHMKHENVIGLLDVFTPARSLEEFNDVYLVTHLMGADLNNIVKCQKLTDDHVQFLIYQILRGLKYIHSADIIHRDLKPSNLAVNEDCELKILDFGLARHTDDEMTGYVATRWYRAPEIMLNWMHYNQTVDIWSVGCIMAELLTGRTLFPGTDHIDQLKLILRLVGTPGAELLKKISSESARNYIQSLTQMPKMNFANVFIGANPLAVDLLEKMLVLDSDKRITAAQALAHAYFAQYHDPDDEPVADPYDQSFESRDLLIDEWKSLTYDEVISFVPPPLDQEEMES
For experiment [9], the target named is Cyclin-dependent kinase 14 (Homo sapiens) (UniProt O94921). The experiment in a line: Selectivity interaction (KinomeScan (DiscoverX)) EUB0000655a CDK14. The conditions noted are these: at 10 µM.
Cyclin-dependent kinase 14 (Homo sapiens), sequence (O94921 whole entry, canonical isoform): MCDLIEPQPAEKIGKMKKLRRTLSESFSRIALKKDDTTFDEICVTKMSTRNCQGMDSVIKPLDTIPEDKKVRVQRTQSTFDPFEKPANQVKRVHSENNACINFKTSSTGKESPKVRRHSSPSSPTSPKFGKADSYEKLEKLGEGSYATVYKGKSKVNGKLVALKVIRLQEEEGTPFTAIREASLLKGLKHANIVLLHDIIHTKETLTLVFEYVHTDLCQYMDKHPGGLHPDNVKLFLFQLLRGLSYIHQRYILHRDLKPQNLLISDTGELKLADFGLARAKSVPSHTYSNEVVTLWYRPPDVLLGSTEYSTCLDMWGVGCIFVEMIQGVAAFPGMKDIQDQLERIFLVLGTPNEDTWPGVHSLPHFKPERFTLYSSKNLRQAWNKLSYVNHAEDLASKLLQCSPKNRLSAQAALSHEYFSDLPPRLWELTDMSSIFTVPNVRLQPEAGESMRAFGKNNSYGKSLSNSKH
Experiment [10] concerns the target Phosphatidylinositol 4,5-bisphosphate 3-kinase catalytic subunit beta isoform (Homo sapiens) (UniProt P42338). The experiment in a line: Selectivity interaction (KinomeScan (DiscoverX)) EUB0000618a PIK3CB. The conditions noted are these: at 10 µM.
The target in experiment [11] is T3, Phosphatidylinositol 5-phosphate 4-kinase type-2 beta (Homo sapiens) (UniProt P78356).
T3 sequence (whole entry): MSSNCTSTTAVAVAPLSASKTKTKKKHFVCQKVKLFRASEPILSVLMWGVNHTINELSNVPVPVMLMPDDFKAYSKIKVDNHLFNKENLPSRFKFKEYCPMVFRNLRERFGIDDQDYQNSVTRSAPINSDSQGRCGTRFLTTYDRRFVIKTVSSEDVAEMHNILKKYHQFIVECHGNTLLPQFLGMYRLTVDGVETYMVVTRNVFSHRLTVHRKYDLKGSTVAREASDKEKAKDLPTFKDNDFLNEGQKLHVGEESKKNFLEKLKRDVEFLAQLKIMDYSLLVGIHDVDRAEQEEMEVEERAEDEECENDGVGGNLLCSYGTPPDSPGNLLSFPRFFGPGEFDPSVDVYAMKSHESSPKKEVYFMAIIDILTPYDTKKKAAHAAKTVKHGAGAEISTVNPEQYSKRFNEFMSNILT
The experiment in a line: Selectivity interaction (KinomeScan (DiscoverX)) EUB0000229b PIP4K2B. The conditions noted are these: at 10 µM.

For experiment [12], the target named is Wee1-like protein kinase 2 (Homo sapiens) (UniProt P0C1S8). The experiment in a line: Selectivity interaction (KinomeScan (DiscoverX)) EUB0000229b WEE2. To be noted: at 10 µM.
Wee1-like protein kinase 2 (Homo sapiens), sequence (P0C1S8 whole entry, looked up): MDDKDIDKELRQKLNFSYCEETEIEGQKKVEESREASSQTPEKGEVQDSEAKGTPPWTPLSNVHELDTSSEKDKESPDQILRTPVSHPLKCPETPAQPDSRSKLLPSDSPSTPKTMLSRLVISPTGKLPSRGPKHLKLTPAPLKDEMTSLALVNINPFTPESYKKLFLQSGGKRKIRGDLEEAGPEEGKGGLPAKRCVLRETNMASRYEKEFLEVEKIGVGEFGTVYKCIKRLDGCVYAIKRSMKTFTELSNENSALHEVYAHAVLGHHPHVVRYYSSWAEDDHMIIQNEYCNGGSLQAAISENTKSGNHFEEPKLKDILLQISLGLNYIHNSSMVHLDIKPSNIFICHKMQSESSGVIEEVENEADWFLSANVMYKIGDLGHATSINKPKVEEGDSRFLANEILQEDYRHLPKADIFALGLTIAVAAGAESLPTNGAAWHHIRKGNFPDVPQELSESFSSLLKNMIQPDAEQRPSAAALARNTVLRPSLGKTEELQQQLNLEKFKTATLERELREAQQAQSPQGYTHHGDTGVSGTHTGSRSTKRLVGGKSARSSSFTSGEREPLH
The target of experiment [13] is T2, Ribosomal protein S6 kinase alpha-3. The experiment in a line: Selectivity interaction (Kinase panel (KiNativ target engagement assay in Jurkat cells)) EUB0001635a RPS6KA3. It counts as cell-based. The conditions noted are these: Selectivity number of off-targets 0.0, Selectivity number of targets 233.0, Source Knowledge https://www.sciencedirect.com/science/article/pii/S2451945619300674?via%3Dihub, at 1 µM.

Structures are written as SMILES.

This note sets out measurements from ChEMBL document CHEMBL5465560, “Selectivity Literature for EUbOPEN Chemogenomic Library” (2024).

T2 sequence (P51812 whole entry): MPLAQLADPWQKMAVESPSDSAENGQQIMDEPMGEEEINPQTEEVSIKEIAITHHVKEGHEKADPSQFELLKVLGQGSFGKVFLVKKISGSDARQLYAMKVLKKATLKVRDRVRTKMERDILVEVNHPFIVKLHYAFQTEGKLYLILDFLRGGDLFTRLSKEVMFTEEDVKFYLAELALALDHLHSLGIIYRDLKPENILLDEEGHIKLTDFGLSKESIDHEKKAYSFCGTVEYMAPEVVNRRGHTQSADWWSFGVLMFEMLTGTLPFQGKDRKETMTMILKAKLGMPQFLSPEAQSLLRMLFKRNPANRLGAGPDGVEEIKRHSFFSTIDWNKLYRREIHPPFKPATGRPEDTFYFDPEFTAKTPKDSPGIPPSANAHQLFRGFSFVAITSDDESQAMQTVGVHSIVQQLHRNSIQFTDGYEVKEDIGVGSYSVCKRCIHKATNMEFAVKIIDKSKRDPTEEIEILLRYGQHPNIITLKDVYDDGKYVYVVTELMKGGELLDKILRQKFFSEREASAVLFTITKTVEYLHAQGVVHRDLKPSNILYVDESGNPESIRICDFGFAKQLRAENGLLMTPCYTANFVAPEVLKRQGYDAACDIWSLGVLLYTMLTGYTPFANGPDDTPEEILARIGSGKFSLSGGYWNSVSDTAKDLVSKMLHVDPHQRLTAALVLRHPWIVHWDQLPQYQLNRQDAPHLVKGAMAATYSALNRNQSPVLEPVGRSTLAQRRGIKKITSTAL
Activin receptor type-1-like (Homo sapiens), sequence (P37023 whole entry): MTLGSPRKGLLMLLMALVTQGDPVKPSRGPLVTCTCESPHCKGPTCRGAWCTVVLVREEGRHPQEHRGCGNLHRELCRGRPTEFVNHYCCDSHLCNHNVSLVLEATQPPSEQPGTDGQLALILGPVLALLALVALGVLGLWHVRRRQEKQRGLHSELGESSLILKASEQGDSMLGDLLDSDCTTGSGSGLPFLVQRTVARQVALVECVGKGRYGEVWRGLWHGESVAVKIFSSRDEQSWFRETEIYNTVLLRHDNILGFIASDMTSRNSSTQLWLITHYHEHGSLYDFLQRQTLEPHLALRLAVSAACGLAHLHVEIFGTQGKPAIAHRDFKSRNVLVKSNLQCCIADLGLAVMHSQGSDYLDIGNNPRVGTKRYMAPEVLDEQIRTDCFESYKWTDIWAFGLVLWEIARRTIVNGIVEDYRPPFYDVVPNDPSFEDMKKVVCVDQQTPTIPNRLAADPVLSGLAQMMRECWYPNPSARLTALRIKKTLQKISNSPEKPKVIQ
Tyrosine-protein kinase ABL1 (Homo sapiens), P00519 [F317I], sequence (P00519 whole entry F317I): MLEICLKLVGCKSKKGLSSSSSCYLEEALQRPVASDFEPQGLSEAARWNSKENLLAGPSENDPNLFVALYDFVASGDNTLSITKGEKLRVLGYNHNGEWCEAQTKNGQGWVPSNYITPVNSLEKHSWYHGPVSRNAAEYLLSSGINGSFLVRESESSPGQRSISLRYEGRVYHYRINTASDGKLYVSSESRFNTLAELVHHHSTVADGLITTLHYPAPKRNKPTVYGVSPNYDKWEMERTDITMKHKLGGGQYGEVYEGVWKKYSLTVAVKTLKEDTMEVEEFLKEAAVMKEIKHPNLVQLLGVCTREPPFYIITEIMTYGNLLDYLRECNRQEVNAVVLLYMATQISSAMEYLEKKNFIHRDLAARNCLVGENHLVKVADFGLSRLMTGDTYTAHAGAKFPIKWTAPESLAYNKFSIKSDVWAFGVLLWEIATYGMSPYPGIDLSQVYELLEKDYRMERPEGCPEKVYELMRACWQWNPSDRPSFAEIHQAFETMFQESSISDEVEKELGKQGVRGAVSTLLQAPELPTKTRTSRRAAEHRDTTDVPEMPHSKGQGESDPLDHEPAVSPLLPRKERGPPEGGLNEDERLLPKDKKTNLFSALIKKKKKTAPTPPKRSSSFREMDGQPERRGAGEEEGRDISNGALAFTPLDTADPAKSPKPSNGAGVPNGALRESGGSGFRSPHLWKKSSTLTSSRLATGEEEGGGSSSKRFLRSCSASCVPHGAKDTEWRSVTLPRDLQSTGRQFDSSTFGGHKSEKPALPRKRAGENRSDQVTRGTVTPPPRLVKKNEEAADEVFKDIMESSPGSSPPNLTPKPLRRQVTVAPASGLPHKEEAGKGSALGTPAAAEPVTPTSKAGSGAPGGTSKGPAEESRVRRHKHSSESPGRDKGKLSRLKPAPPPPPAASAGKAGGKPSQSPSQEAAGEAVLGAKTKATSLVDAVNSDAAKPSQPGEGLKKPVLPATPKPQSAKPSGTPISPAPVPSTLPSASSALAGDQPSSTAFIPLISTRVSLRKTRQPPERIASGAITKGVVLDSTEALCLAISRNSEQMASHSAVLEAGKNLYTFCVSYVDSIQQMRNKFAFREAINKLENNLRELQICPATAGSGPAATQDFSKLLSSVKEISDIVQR

For `N#Cc1cccc(-c2c[nH]c3ncnc(N4CCOCC4)c23)c1`, in experiment [1], the % of control came out at 2.7%.
In turn, `CCN(CC)CCCCNc1ncc2cc(-c3cc(OC)cc(OC)c3)c(NC(=O)NC(C)(C)C)nc2n1` showed a % of control in experiment [2] of 100%.
Consider `C=CC(=O)Nc1cc(-n2c(=O)ccc3cnc4ccc(-c5ccc(NS(C)(=O)=O)cc5)cc4c32)ccc1C`, for which the % of control stood at 100% in experiment [3] (at 1 µM); 75% in experiment [3] (at 10 µM); 100% in experiment [4] (at 1 µM); 62% in experiment [4] (at 10 µM); 81% in experiment [5] (at 1 µM); 100% in [5] (at 10 µM).
As usually defined, the IC50 is the midpoint of a concentration-inhibition curve. Low values mean greater potency in that assay, high ones weaker potency in that assay. Consider `CN(C)C(=O)Cn1cc(-c2ccc(-c3cncc4ccccc34)cc2)cn1`, for which, in [6], the half-maximal inhibitory concentration (IC50) was 1.7 nM.
For `CN(C)C/C=C/C(=O)Nc1ccc(C(=O)N2CCCC(Nc3ncc(Cl)c(-c4c[nH]c5ccccc45)n3)C2)cc1` (stereo unspecified), the % of control in [7] was determined as 100%; in [8] it was 92%.
`CN(C)CCOc1ccc(-c2nc(-c3ccncc3)c(-c3ccc4c(c3)CC/C4=N\O)[nH]2)cc1`: the % of control in [9] turned out to be 100%.
For the compound `O[C@H]1CC[C@H](Nc2ncc3nc(Nc4c(F)cc(F)cc4F)n([C@H]4CCOC4)c3n2)CC1`, the % of control in experiment [10] stood at 100%.
In the case of `COc1cc(N(C)c2ccnc3ccc(C(F)(F)F)cc23)cc(OC)c1OC`, the % binding in experiment [11] was 100%; in experiment [12] it was 87%.
In experiment [13], `C=CC(=O)Nc1ccc(C(=O)Nc2[nH]nc3c2CN(C(=O)N[C@H](CN(C)C)c2ccccc2)C3(C)C)cc1` gave a % of engagement of 12%.
